Source: patent publication US6395787B1, “Ocular hypotensive lipids” (Allergan Sales, Inc., priority 2000, dated 2002)

What was measured:
[1] = molecular target: recombinant feline FP receptor (Felis catus, UniProt A0ABI7XJ69); test: Ca2+ signal in HEK-293 cells stably transfected with recombinant feline FP receptor; type: cell-based, cat; settings: for Δ[Ca^2+]i mean χ ± SEM: n = 3
Experimental: Human CRL 1497 cells were plated in culture flasks and fed Dulbecco's modified Eagle's medium (DMEM) containing 10% fetal calf serum, 2 mM 1-glutamine, and 0.05 mg/ml gentacin (all purchased from Gibco, Grand Island, N.Y.). Cell cultures were maintained in a humidified atmosphere of 95% air, 5% CO2 and grown to confluency. Cells were removed from the culture flasks by approximately 1 min treatment with trypsin 0.05%/0.53 mM EDTA in Hanks Balanced Salt Solution (HBSS, Gibco, Grand Island, N.Y.) at 37° C. Proteolytic activity was arrested by adding 5 ml of 10% fetal bovine serum in DMEM. The cells were consecutively washed in Hank's BSS and medium containing 140 mM NaCl, […], 1 mM MgCl2, 1.5 mM CaCl2, 10 mM HEPES: TRIS, 5 mM glucose, 5 mM Na pyruvate, 0.1% bovine serum albumin at pH 7.4: Centrifugation for the washes was performed for 15 minutes at 200 g at room temperature. Cells were counted, resuspended in the above medium and incubated with 2×10^−6 M Fura 2/acetoxymethyl ester in a shaking water bath for 30 minutes at 37° C. The cells were subsequently washed in medium as above and resuspended at a concentration of 2×10^6 cells ml^−1. Aliquots of 0.5 ml cell suspension were then added to autocap microtubes to provide 10^6 cells per experimental determination of intracellular free Ca^2+ concentration ([Ca^2+]i).
Fluorescence was measured in a Perkin-Elmer LS-5 fluorescence spectrophotometer at excitation and emission wavelengths of 340 and 492 nm, respectively, with both slits at 10 nm. For each experimental determination 10^6 cells were washed (200×g for 5 min) and suspended in a 2 ml cuvette with buffer containing 120 mM NaCl, 6 mM KCl, 1 mM MgSO4, 1.5 mM CaCl2, 20 mM HEPES, 1 mg ml^−1 glucose and 1 mg ml^−1 Na pyruvate. Stirring was achieved by an overhead-mounted, paddle stirrer with the temperature maintained at 37° C. The cells were lysed with digitonin (10 μl of 100 mg ml^−1 DMSO) to obtain fmax. EGTA (100 mM) and sufficient 10N NaOH to adjust the pH to 8.5 were then successively added to obtain fmin.
HEK-293 cells were grown in DMEM with 10% fetal bovine serum (FBS), 250 μg ml^−1 G418 (Life Technologies) and 200 μg ml^−1 gentamicin or penicillin/streptomycin. […] For transfection, the cells were grown to 50-60% confluency on 10 cm plates. The plasmid pCEP4 incorporating cDNA inserts for the human FP receptor (20 μg) was added to 500 μl of 250 mM CaCl2. HEPES buffered saline×2 (2×HBSS, 280 mM NaCl, 20 mM HEPES acid, 1.5 mM Na2 HPO4, pH 7.05-7.12) was then added dropwise to a […], with continuous vortexing at room temperature. After 30 min, 9 ml DMEM were added to the mixture. The DNA/DMEM/calcium phosphate mixture was then added to the cells, which had been previously rinsed with 10 ml phosphate buffered saline (PBS). The cells were then incubated for 5 h. at 37° C. in humidified 95% air/5% CO2. The calcium phosphate solution was then removed and the cells were treated with 10% glycerol in DMEM for 2 min. The glycerol solution was then replaced by DMEM with 10% fetal bovine serum (FBS). The cells were incubated overnight and the medium was replaced by DMEM/10% FBS containing 250 μg ml^−1 G418 and penicillin/streptomycin. The following day hygromycin B was added to a final concentration of 200 μg ml^−1.
Ten days after transfection, hygromycin B resistant clones were individually selected and transferred to a separate well on a 24 well plate. […]

dog intraocular pressure = test: Intraocular pressure in conscious Beagle dogs; type: in vivo; settings: 0.1% dose, topical
Experimental: Intraocular pressure studies in dogs involved pneumatonometry performed in conscious, Beagle dogs of both sexes (10-15 kg). The animals remained conscious throughout the study and were gently restrained by hand. Drugs were administered topically to one eye as a 25 μL volume drop, the other eye received 25 μL vehicle (0.1% polysorbate 80:10 mM TRIS) as a control. 0.1% proparacaine was used for corneal anesthesia during tonometry. Intraocular pressure was determined just before drug administration and at 2, 4 and 6 hr thereafter on each day of the 5 day study. Drug was administered immediately after the first IOP reading.

dog pupil diameter = test: Dog pupil diameter; type: in vivo; settings: 0.1%; for Pupil diameter (mm), test eye: n = 6
Experimental: Dog pupil diameter was measured using an optistick (a mm ruler which included half-circle references of standard widths (mm) for reference. Gently restraining the dog by hand, pupil diameter was determined by matching a half-circle to the pupil in normal room light. In dogs with very dark pupils a specialized penlight was used, but only very briefly to avoid pupil constriction. Pupil diameter was measured at the same time as IOP and hyperemia.

[2] = tested on: human platelets (DP-, TP- and IP-receptor types); test: Human platelet aggregation and inhibition of ADP-induced aggregation; type: cell-based
Experimental: Prostanoid activity at the DP-, TP- and IP-receptor types was determined by an ability to cause aggregation (TP-receptor activity) or to inhibit ADP-induced aggregation of human platelets in vitro (DP- and IP-receptor activity). Fresh whole blood was obtained from consenting healthy human volunteers and mixed with acid citrate-dextrose (ACD). The blood was centrifuged at 1000 rpm for 15-20 minutes to obtain platelet rich plasma (PRP). 4.5 μl of prostanoid or vehicle was added to 450 μl of PRP and incubated for 2 minutes at 37° C. in a Payton aggregometer and observed for any aggregatory activity. 2×10^−5 M ADP (final concentration) was then added to induce full aggregation. Inhibition of aggregation was calculated as the percentage difference between aggregation evoked by 2×10^−5 M ADP in the absence and presence of drug. Aggregatory activity was calculated as the percent aggregation induced by the prostanoid relative to the aggregation induced by 2×10^−5 M ADP. Standard aggregatory responses to 2×10^−5 M ADP alone were performed at the beginning and end of each experiment.

Chain of recombinant feline FP receptor (A0ABI7XJ69 entry or part of it): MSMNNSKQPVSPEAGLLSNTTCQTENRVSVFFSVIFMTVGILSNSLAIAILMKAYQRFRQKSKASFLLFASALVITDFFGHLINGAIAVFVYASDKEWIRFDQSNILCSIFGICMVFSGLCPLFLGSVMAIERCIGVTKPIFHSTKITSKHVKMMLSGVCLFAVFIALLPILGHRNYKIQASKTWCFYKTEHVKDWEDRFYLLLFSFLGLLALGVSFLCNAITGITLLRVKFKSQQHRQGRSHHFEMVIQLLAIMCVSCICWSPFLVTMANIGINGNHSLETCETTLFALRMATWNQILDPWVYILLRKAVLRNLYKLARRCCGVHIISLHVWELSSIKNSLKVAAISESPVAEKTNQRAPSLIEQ

- Δ[Ca^2+]i mean χ ± SEM ([1]; 10^−9 M): 22.2 ± 6.4
- Δ[Ca^2+]i mean χ ± SEM ([1]; 10^−10 M): 6.5 ± 5.0
- difference in potency vs PGF2α ([1]; HEK-293 cells, recombinant feline FP receptor, Ca2+ signal): approximately 100 fold
- EC50 ([1]; HEK-293 cells, recombinant feline FP receptor, read-out: E.C.50, Ca2+ signal): 1460 nM
Structure (SMILES): CCCCC[C@H](O)/C=C/[C@@H]1[C@@H](C/C=C\CCCC(=O)NCCO)[C@@H](O)C[C@H]1O [PGF2α 1-ethanolamide, (5Z,8α,9α,11α,13E,15S)-9,11,15-trihydroxy-N-(2-hydroxyethyL)prosta-5,13-dien-1-amide]
- duration of intraocular pressure effect (dog intraocular pressure): persisted over the entire 24 hr experimental period
- effect on intraocular pressure (dog intraocular pressure): marked and highly significant decrease
- Pupil diameter (mm), test eye (dog pupil diameter; 0 HR (baseline)): 6.7 ± 0.2 mm
- Pupil diameter (mm), test eye (dog pupil diameter; 2 HR): 1.0 ± 0.4 mm
- Pupil diameter (mm), test eye (dog pupil diameter; 4 HR): 1.0 ± 0.3 mm
- Pupil diameter (mm), test eye (dog pupil diameter; 6 HR): 1.5 ± 0.4 mm
- Pupil diameter (mm), test eye (dog pupil diameter; 24 HR): 7.0 ± 0.3 mm
- miosis (dog pupil diameter; topical): marked miosis
- effect on platelets (aggregation; inhibition of ADP induced aggregation) [2]: No effect
